{"source": "patent EP0812839A1", "about": "“Irreversible HIV protease inhibitors, compositions containing same and process for the preparation thereof” (LG Chemical Limited, priority 1996, dated 1997)", "key": {"HIV-1": {"tested_on": "HIV-1", "assay": "Anti-viral activity: syncytium formation (Sup T1) or reverse transcriptase assay (H9)", "assay_type": "cell-based", "details": "Human immunodeficiency virus 1, concentration that inhibits the proliferation of HIV by 50%, H9 or Sup T1 cell lines, 200 TCID50 of HIV-1", "description": "The anti-viral activity of the compounds of the present invention was determined by measuring the concentration of the compounds that inhibits the proliferation of HIV by 50%(IC50) through a survey for syncytium formation or reverse transcriptase assay.\n1 x 10^5 cells of each of H9(ATCC HTB 176) and Sup T1 cell lines were added to the wells of a 24-well microtiter plate and various concentrations of the compounds of the present invention were added thereto. 200 TCID50(200-fold of 50% tissue culture infection dose) of HIV-1 inoculum and rpmi-1640 medium(Sigma Chemical Co., U.S.A) were added successively to the wells and the plate was incubated at 37°C. In case of Sup T1, the number of syncytium formed was investigated after 3 to 9 days. IC50 of each compound was determined by measuring the concentration of inhibitor that can reduce the number of syncytium by 50% compared with those formed in the same condition without the inhibitor.\nIn case of H9, three-quarters(3/4) of the culture medium in volume was refreshed every 3 days; and after 9 days, 6ml of the culture fluid was taken and 2.5ml of 30% polyethyleneglycol(PEG, M.W. 6000-8000) and 0.4M NaCl were added thereto. The resulting solution was allowed to stand at 0°C overnight to precipitate virus particles. The solution was centrifuged at 2000rpm for 45 minutes, the supernatant was discarded therefrom and the precipitate was diluted with 20µl of a reverse transcriptase suspension buffer(50mM tris-HCl, pH 7.5, 1mM dithiothreitol, 20% glycerol, 0.25M KCl and 0.25% Triton X-100). The resulting suspension was stored in an Effendorf tube at -70°C until used. A procedure of freezing said virus suspension for 2 minutes in dry ice and thawing same at 37°C for 2 minutes was repeated three times and the resulting suspension was centrifuged at 4°C. The resulting supernatant was used in carrying out the reverse transcriptase assay.\n10µl of the said viral suspension was added to a solution of: 10µl of buffer solution(250mM tris-HCl, pH 7.5, 37.5mM MgCl2, 0.25% triton X-100), 1.2µl of 200mM dithiothreitol, 5µl of 100µM oligo(dT)-poly(A)(Boeringer Manheim, 12-18 oligomer), 1µl(1µCi) of ^3H-TTP(Thymidinetri-phosphate) and 23.6µl of water; and the resulting mixture was placed at 37°C. After 1 hour, the mixture was poured onto a WHATMAN DEB1 filter and the filter was washed three times with 5ml of 2 x SSC buffer solution(17.53g of sodium chloride, 8.82g of sodium citrate, pH 7.0, 1 liter of water) for about 10 minutes each time and twice with 95% methanol for 10 seconds. The filter was put onto aluminum foil and dried with an infra-red lamp. The amount of radioactivity was counted using a liquid scintillation counter."}, "HIV-1 protease": {"molecular_target": "T1, HIV-1 protease (Human immunodeficiency virus type 1 group M subtype B, UniProt P04585)", "T1 construct": "addition of 2.6nM of HIV-1 protease", "assay": "Assay for inhibitory effect on HIV protease (time-dependent inactivation, HPLC readout of oligopeptide substrate cleavage)", "assay_type": "biochemical", "details": "second order rate constant; 2.6nM HIV-1 protease; 50mM sodium acetate, pH 0.5; KINSIM/FITSIM program", "description": "The inhibitory effect on HIV protease of the compounds of the present invention was determined by the following method.\nTo a buffer solution comprising 50mM sodium acetate, pH 0.5, 1mM dithiothreitol(DTT), 1mM ethylenediamine-tetraacetate (EDTA), 0.75M ammonium sulfate and 0.1% NP 40(NONIGET P-40; Sigma Chemical Co., U.S.A.) was added a measured amount of a compound selected from Compound Nos. 1 to 12 to prepare a preincubation solution. Inhibition reaction was started with the addition of 2.6nM of HIV-1 protease to the preincubation solution. Each of 10µl sample of the reaction solution taken at a given time interval was added to 80µl of assay solution containing […] of reaction substrate in the same buffer solution as above to assay for the residual enzyme activity. In this context, an oligopeptide consisting of 11 amino acids, i.e., H-His-Lys-Ala-Arg-Val-Leu-Phe-(p-NO2)-(Glu-Ala-Ile-Ser-NH2), was used as a reaction substrate, which oligopeptide was to be cleaved in two by the breakage of amide bond between Leu and Phe-(P-NO2) upon the attack of HIV protease. The reaction rate was determined by subjecting the substrate before the reaction and the product after the reaction to HPLC separation and then measuring the relative amount of the product, using the strong absorbance of (p-NO2)-Phe at 280nm. The amounts of reduction in enzyme activity according to the elapsed time were measured and the natural logarithmic values(ln) of the measured amounts were plotted against time to obtain a linear graph and kobs was calculated from the slope of the linear graph.\nThe inhibition constant was calculated according to the following equation: (1)/(kobs)=(1)/(kina)+(KI)/(kina)(1)/([I]) [formula] wherein: kobs is a rate constant indicating the rate of reduction in enzyme activity according to the elapsed time under the presence of a given concentration of inhibitor, kina is a rate constant indicating the rate of chemical reaction forming covalent bond between an enzyme and an inhibitor in Michaelis-Menten complex, KI is an inhibition constant indicating the dissociation rate of Michaelis-Menten complex into an enzyme and an inhibitor, and [I] means the inhibitor concentration.\nThe above equation is applicable to an experiment carried out under the condition in which the concentration of inhibitor is far higher than that of enzyme (Steady State Kinetic). […] The inhibition constants KI and kina and second order rate constant kina/KI were obtained by inputting the value of [E]/([E]+[EI]+[EI']) into KINSIM/FITSIM program. In case that second order rate constant kina/KI is larger than 10^9, it is hard to calculate the exact values by KINSIM/FITSIM program [Williams, J.W. and Morrison, J.F., Methods, Enzymol., 63, 437-466([…]); and Zimmerle, C.T. and Frieden, C., J. Biochem., 258, 381-387(1989)]."}, "H9 cell or Sup T1 cell": {"tested_on": "H9 cell or Sup T1 cell", "assay": "Cytotoxicity by trypan blue dye exclusion", "assay_type": "cell-based", "details": "concentration that causes death of cells by 50%, 0.1µM to 100µM tested", "method": "The medium was refreshed every 3 days and the extent of cell proliferation was observed using Hemacytometer according to the trypan blue dye exclusion technique which is well known in the art. CT50(i.e., concentration that causes death of cells by 50%) was determined."}}}
{"smiles": "CC(C)C(NC(=O)OC[C@@H]1O[C@@H]1[C@H](Cc1ccccc1)NC(=O)[C@H](CC(N)=O)NC(=O)c1ccc2ccccc2n1)C(C)C", "note": "[Example 3]", "values": [{"measurement": "IC50", "setting": "HIV-1", "value": 110, "unit": "nM"}, {"measurement": "kina/KI", "setting": "HIV-1 protease", "value": "10^9 - 10^10 min^-1M^-1"}, {"measurement": "CT50", "setting": "H9 cell or Sup T1 cell", "value": ">10", "unit": "µM"}]}
{"smiles": "CC(C)C(NC(=O)OC[C@@H]1O[C@@H]1[C@H](Cc1ccccc1)NC(=O)[C@@H](NC(=O)c1ccc2ccccc2n1)C(C)(C)S(C)(=O)=O)C(C)C", "note": "[Example 9]", "values": [{"measurement": "IC50", "setting": "HIV-1", "value": 80, "unit": "nM"}, {"measurement": "kina/KI", "setting": "HIV-1 protease", "value": "10^9 - 10^10 min^-1M^-1"}, {"measurement": "CT50", "setting": "H9 cell or Sup T1 cell", "value": ">10", "unit": "µM"}]}
{"smiles": "CC(C)[C@H](NC(=O)OC[C@@H]1O[C@@H]1[C@H](Cc1ccccc1)NC(=O)[C@@H](NC(=O)OCc1ccccc1)C(C)(C)S(C)(=O)=O)c1ccccc1", "note": "[Example 5]", "values": [{"measurement": "IC50", "setting": "HIV-1", "value": 50, "unit": "nM"}, {"measurement": "kina/KI", "setting": "HIV-1 protease", "value": "10^9 - 10^10 min^-1M^-1"}, {"measurement": "CT50", "setting": "H9 cell or Sup T1 cell", "value": ">10", "unit": "µM"}]}
{"smiles": "CC(C)C(NC(=O)OC[C@@H]1O[C@@H]1[C@H](Cc1ccccc1)NC(=O)[C@@H](NC(=O)OCc1ccccc1)C(C)(C)S(C)(=O)=O)C(C)C", "note": "[Example 6]", "values": [{"measurement": "IC50", "setting": "HIV-1", "value": 50, "unit": "nM"}, {"measurement": "kina/KI", "setting": "HIV-1 protease", "value": "10^9 - 10^10 min^-1M^-1"}, {"measurement": "CT50", "setting": "H9 cell or Sup T1 cell", "value": ">10", "unit": "µM"}]}
{"smiles": "CC(C)[C@H](NC(=O)OC[C@@H]1O[C@@H]1[C@H](Cc1ccccc1)NC(=O)[C@@H](NC(=O)c1ccc2ccccc2n1)C(C)(C)S(C)(=O)=O)c1ccccc1", "note": "[Example 8]", "values": [{"measurement": "IC50", "setting": "HIV-1", "value": 100, "unit": "nM"}, {"measurement": "kina/KI", "setting": "HIV-1 protease", "value": "10^9 - 10^10 min^-1M^-1"}, {"measurement": "CT50", "setting": "H9 cell or Sup T1 cell", "value": ">10", "unit": "µM"}]}
{"smiles": "CC(C)[C@H](NC(=O)OC[C@@H]1O[C@@H]1[C@H](Cc1ccccc1)NC(=O)[C@@H](NC(=O)COc1cccc2cnccc12)C(C)(C)S(C)(=O)=O)c1ccccc1", "note": "[Example 11]", "values": [{"measurement": "IC50", "setting": "HIV-1", "value": 15, "unit": "nM"}, {"measurement": "kina/KI", "setting": "HIV-1 protease", "value": "10^9 - 10^10 min^-1M^-1"}, {"measurement": "CT50", "setting": "H9 cell or Sup T1 cell", "value": ">10", "unit": "µM"}]}
{"smiles": "CC(C)[C@@H](Cc1ccccc1)NC(=O)OC[C@@H]1O[C@@H]1[C@H](Cc1ccccc1)NC(=O)[C@@H](NC(=O)c1ccc2ccccc2n1)C(C)(C)S(C)(=O)=O", "note": "[Example 7, 4S-[N-(2-quinolinecarbonyl)-β-methanesulfony]-L-valinyl]amino-(3R,2S)-epoxy-5-pheny]-1-pentyl N-2S-(1-phenyl-3-methylbutyl) carbamate]", "values": [{"measurement": "IC50", "setting": "HIV-1", "value": 20, "unit": "nM"}, {"measurement": "kina/KI", "setting": "HIV-1 protease", "value": "10^9 - 10^10 min^-1M^-1"}, {"measurement": "CT50", "setting": "H9 cell or Sup T1 cell", "value": ">10", "unit": "µM"}]}
{"smiles": "CC(C)[C@@H](Cc1ccccc1)NC(=O)OC[C@@H]1O[C@@H]1[C@H](Cc1ccccc1)NC(=O)[C@@H](NC(=O)COc1cccc2cnccc12)C(C)(C)S(C)(=O)=O", "note": "[Example 10, 4S-[N-(5-isoquinolinyloxymethylenecarbonyl)-β-methanesulfonyl-L-valinyl]amino-(3R,2S)-epoxy-5-phenyl-1-pentyl N-2R-(1-phenyl-3-methylbutyl) carbamate]", "values": [{"measurement": "IC50", "setting": "HIV-1", "value": 12, "unit": "nM"}, {"measurement": "kina/KI", "setting": "HIV-1 protease", "value": "10^9 - 10^10 min^-1M^-1"}, {"measurement": "CT50", "setting": "H9 cell or Sup T1 cell", "value": ">10", "unit": "µM"}]}
{"smiles": "CC(C)[C@H](NC(=O)OC[C@@H]1O[C@@H]1[C@H](Cc1ccccc1)NC(=O)[C@H](CC(N)=O)NC(=O)c1ccc2ccccc2n1)c1ccccc1", "note": "[Example 2]", "values": [{"measurement": "IC50", "setting": "HIV-1", "value": 130, "unit": "nM"}, {"measurement": "kina/KI", "setting": "HIV-1 protease", "value": "10^9 - 10^10 min^-1M^-1"}, {"measurement": "CT50", "setting": "H9 cell or Sup T1 cell", "value": ">10", "unit": "µM"}]}
{"smiles": "CC(C)[C@@H](Cc1ccccc1)NC(=O)OC[C@@H]1O[C@@H]1[C@H](Cc1ccccc1)NC(=O)[C@H](CC(N)=O)NC(=O)c1ccc2ccccc2n1", "note": "[Example 1, 4S-[N-(2-quinolinecarbonyl)-L-asparaginyl]amino-(3R,2S)-epoxy-5-phenylpentyl N-2R-(1-phenyl-3-methylbutyl) carbamate]", "values": [{"measurement": "IC50", "setting": "HIV-1", "value": 125, "unit": "nM"}, {"measurement": "kina/KI", "setting": "HIV-1 protease", "value": "10^9 - 10^10 min^-1M^-1"}, {"measurement": "CT50", "setting": "H9 cell or Sup T1 cell", "value": ">10", "unit": "µM"}]}
{"smiles": "CC(C)C(NC(=O)OC[C@@H]1O[C@@H]1[C@H](Cc1ccccc1)NC(=O)[C@@H](NC(=O)COc1cccc2cnccc12)C(C)(C)S(C)(=O)=O)C(C)C", "note": "[Example 12]", "values": [{"measurement": "IC50", "setting": "HIV-1", "value": 50, "unit": "nM"}, {"measurement": "kina/KI", "setting": "HIV-1 protease", "value": "10^9 - 10^10 min^-1M^-1"}, {"measurement": "CT50", "setting": "H9 cell or Sup T1 cell", "value": ">10", "unit": "µM"}]}
{"smiles": "CC(C)[C@@H](Cc1ccccc1)NC(=O)OC[C@@H]1O[C@@H]1[C@H](Cc1ccccc1)NC(=O)[C@@H](NC(=O)OCc1ccccc1)C(C)(C)S(C)(=O)=O", "note": "[Example 4, 4S-[(N-benzyloxycarbonyl)-β-methanesulfonyl-L-valinyl]amino-(3R,2S)-epoxy-5-phenyl-1-pentyl N-2R-(1-phenyl-3-methylbutyl) carbamate]", "values": [{"measurement": "IC50", "setting": "HIV-1", "value": 15, "unit": "nM"}, {"measurement": "kina/KI", "setting": "HIV-1 protease", "value": "10^9 - 10^10 min^-1M^-1"}, {"measurement": "CT50", "setting": "H9 cell or Sup T1 cell", "value": ">10", "unit": "µM"}]}
